The structures appear in SMILES notation.

The target in this assay is T1, F508del (Homo sapiens, UniProt P13569, DEL508-508).
T1 construct: expressed in transfected cells
Kind of assay: Protocol 1: membrane potential optical assay (FLIPR III, voltage sensing dye), identification of potentiator compounds. Format: cell-based. The settings on record: Table 3, compounds of Table 1. In outline: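 Mouse NIH 3T3 fibroblasts stably expressing F508del, temperature-corrected at 27 °C for 24 h, pretreated with compound, then loaded with voltage-sensing redistribution dye. Forskolin was added in a single step with a chloride gradient (chloride-free gluconate bath; Bath Solution #1 HEPES pH 7.4). Membrane-potential fluorescence read on FLIPR III.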

T1 sequence (P13569 with tags, fused parts or gaps DEL508-508): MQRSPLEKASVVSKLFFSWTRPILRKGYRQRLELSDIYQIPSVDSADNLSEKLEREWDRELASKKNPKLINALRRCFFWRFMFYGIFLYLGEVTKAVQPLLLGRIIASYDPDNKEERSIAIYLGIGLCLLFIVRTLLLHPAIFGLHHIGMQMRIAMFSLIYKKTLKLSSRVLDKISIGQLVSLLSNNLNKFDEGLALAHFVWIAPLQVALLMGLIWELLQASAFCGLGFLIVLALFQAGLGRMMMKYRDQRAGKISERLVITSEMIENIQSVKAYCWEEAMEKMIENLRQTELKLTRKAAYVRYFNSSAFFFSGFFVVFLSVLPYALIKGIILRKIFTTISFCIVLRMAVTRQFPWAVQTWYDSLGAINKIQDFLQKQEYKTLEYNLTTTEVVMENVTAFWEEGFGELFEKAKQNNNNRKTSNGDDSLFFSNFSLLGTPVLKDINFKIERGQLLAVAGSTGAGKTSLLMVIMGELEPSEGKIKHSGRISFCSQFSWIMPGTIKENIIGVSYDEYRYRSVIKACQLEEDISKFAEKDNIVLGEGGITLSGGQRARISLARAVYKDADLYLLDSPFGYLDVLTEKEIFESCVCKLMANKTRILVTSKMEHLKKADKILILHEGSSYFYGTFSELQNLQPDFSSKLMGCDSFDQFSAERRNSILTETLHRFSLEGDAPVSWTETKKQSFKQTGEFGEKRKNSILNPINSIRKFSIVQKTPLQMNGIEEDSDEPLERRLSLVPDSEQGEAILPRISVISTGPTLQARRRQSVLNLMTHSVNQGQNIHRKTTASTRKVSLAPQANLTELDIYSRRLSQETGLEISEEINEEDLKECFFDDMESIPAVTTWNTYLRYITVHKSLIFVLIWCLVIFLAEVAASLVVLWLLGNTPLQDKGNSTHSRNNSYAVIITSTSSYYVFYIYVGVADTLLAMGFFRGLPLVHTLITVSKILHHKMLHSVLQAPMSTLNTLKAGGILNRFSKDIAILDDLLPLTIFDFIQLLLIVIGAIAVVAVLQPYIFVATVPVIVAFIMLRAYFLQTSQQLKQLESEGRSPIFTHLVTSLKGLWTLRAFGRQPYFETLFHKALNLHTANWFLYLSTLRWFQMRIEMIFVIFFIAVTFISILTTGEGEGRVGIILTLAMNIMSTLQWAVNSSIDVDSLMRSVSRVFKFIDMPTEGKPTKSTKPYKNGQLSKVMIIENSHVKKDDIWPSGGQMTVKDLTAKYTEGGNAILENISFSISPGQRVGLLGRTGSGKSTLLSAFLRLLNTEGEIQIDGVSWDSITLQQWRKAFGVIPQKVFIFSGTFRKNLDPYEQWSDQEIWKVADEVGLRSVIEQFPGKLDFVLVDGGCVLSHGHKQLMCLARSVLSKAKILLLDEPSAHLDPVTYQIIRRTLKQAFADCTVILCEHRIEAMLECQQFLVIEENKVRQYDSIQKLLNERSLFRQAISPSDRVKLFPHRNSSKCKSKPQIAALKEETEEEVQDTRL

Take `CC(C)COc1cc(F)cc(-c2ccc(C(=O)NS(=O)(=O)c3cccc(N)n3)c(N3CCC(=O)C3(C)C)n2)c1` [Compound 1189, N-[(6-amino-2-pyridyl)sulfonyl]-2-(2,2-dimethyl-3-oxo-pyrrolidin-1-yl)-6-(3-fluoro-5-isobutoxy-phenyl)pyridine-3-carboxamide]: the EC30 entry is “+++ (“+++” means <3 uM)”.

As to `CC1CN(c2ncc(-c3cccc(C(F)(F)F)c3)cc2C(=O)NS(=O)(=O)c2cccc(N)n2)C(C)(C)C1` (stereo not shown) [Compound 1950, N-[(6-amino-2-pyridyl)sulfonyl]-5-[3-(trifluoromethyl)phenyl]-2-(2,2,4-trimethylpyrrolidin-1-yl)pyridine-3-carboxamide], the EC30 result is given as “+++ (“+++” means <3 uM)”.

As for `Cc1cc(C)c(Oc2nc(C3=CC(=O)CC(C)(C)C3)ccc2C(=O)NS(=O)(=O)c2cccc(N)n2)c(C)c1` [Compound 1528, N-[(6-amino-2-pyridyl)sulfonyl]-6-(5,5-dimethyl-3-oxo-cyclohexen-1-yl)-2-(2,4,6-trimethylphenoxy)pyridine-3-carboxamide], the EC30 entry was “++ (“++” means between 3 uM and 10 uM)”.

`CC(=O)C1CCC(c2ccc(C(=O)NS(=O)(=O)c3cccc(N)n3)c(Oc3c(C)cc(C)cc3C)n2)CC1` (stereo not shown) [Compound 1631, 6-(4-acetylcyclohexyl)-N-[(6-amino-2-pyridyl)sulfonyl]-2-(2,4,6-trimethylphenoxy)pyridine-3-carboxamide]: the EC30 entry was “++ (“++” means between 3 uM and 10 uM)”.

`COc1ccc(S(=O)(=O)NC(=O)c2ccc(-c3cc(F)cc(OCC(C)C)c3)nc2N2C[C@@H](C)CC2(C)C)cc1` [Compound 1876, 6-(3-fluoro-5-isobutoxy-phenyl)-N-(4-methoxyphenyl)sulfonyl-2-[(4S)-2,2,4-trimethylpyrrolidin-1-yl]pyridine-3-carboxamide]: the EC30 entry is given as “+++ (“+++” means <3 uM)”.

As to `CCCCOc1cccc(-c2ccc(C(=O)NS(=O)(=O)c3ccc[nH]c3=O)c(Oc3c(C)cc(C)cc3C)n2)c1Cl` [Compound 964, 6-(3-butoxy-2-chloro-phenyl)-N-[(2-oxo-1H-pyridin-3-yl)sulfonyl]-2-(2,4,6-trimethylphenoxy)pyridine-3-carboxamide], the EC30 entry is given as “+++ (“+++” means <3 uM)”.

In the case of `CCC(C)Oc1ccn(-c2ccc(C(=O)NS(=O)(=O)c3cccnc3N)c(N3C[C@@H](C)CC3(C)C)n2)n1` (stereo partly drawn) [Compound 1970, N-[(2-amino-3-pyridyl)sulfonyl]-6-(3-sec-butoxypyrazol-1-yl)-2-[(4S)-2,2,4-trimethylpyrrolidin-1-yl]pyridine-3-carboxamide], the EC30 entry is reported as “+++ (“+++” means <3 uM)”.

On to `Cc1cc(C)c(Oc2nc(-c3cccc(F)c3F)ccc2C(=O)NS(=O)(=O)c2ccc[nH]c2=O)c(C)c1` [Compound 1296, 6-(2,3-difluorophenyl)-N-[(2-oxo-1H-pyridin-3-yl)sulfonyl]-2-(2,4,6-trimethylphenoxy)pyridine-3-carboxamide], for which the EC30 result is given as “+ (“+” means greater than 10 uM)”.

`Cn1ccc2c(Cn3nc(C(C)(C)C)cc3C(=O)NS(=O)(=O)c3cccc(N)c3)cccc21` [Compound 927, N-(3-aminophenyl)sulfonyl-5-tert-butyl-2-[(1-methylindol-4-yl)methyl]pyrazole-3-carboxamide]: the EC30 entry was “++ (“++” means between 3 uM and 10 uM)”.

`CC(C)(C)c1cc(C(=O)NS(=O)(=O)c2cccc(N)c2)n(Cc2ccc(Cl)cc2Cl)n1` [Compound 797, N-(3-aminophenyl)sulfonyl-5-tert-butyl-2-[(2,4-dichlorophenyl)methyl]pyrazole-3-carboxamide]: the EC30 entry was “+ (“+” means greater than 10 uM)”.

Take `CC(C)COc1cc(F)cc(-c2ccc(C(=O)NS(=O)(=O)c3cccc(N)n3)c(N3CCC(c4ccccc4)C3C)n2)c1` (stereo not shown) [Compound 1319, N-[(6-amino-2-pyridyl)sulfonyl]-6-(3-fluoro-5-isobutoxy-phenyl)-2-(2-methyl-3-phenyl-pyrrolidin-1-yl)pyridine-3-carboxamide]: the EC30 result was “+++ (“+++” means <3 uM)”.

`CC(C)COc1cc(F)cc(-c2ccc(C(=O)NS(=O)(=O)c3cccc(N)n3)c(OCC3CC3(C)C)n2)c1` (stereo not shown) [Compound 894, N-[(6-amino-2-pyridyl)sulfonyl]-2-[(2,2-dimethylcyclopropyl)methoxy]-6-(3-fluoro-5-isobutoxy-phenyl)pyridine-3-carboxamide]: the EC30 entry is “+++ (“+++” means <3 uM)”.

Turning to `CCCN(CC1CC1)c1nc(-c2cc(F)cc(OCC(C)C)c2)ccc1C(=O)NS(=O)(=O)c1cccc(N)n1` [Compound 881, N-[(6-amino-2-pyridyl)sulfonyl]-2-[cyclopropylmethyl(propyl)amino]-6-(3-fluoro-5-isobutoxy-phenyl)pyridine-3-carboxamide], the EC30 entry is given as “+++ (“+++” means <3 uM)”.

For `Cc1cc(C)c(Oc2nc(C3=CC4CCC3C4)ccc2C(=O)NS(=O)(=O)c2cccc(N)n2)c(C)c1` (stereo not shown) [Compound 1518, N-[(6-amino-2-pyridyl)sulfonyl]-6-(3-bicyclo[2.2.1]hept-2-enyl)-2-(2,4,6-trimethylphenoxy)pyridine-3-carboxamide], the EC30 entry is “+++ (“+++” means <3 uM)”.

For `CC1CN(c2ncccc2C(=O)NS(=O)(=O)c2cccc(NCc3ccc4c(c3)OCO4)n2)C(C)(C)C1` (stereo not shown) [Compound 1814, N—[[6-(1,3-benzodioxol-5-ylmethylamino)-2-pyridyl]sulfonyl]-2-(2,2,4-trimethylpyrrolidin-1-yl)pyridine-3-carboxamide], the EC30 result is given as “+++ (“+++” means <3 uM)”.

With `CCCc1ccc2c(c1)cc(C(=O)NS(=O)(=O)c1cccc(N)n1)n2Cc1c(C)cc(C)cc1C` [Compound 1158, N-[(6-amino-2-pyridyl)sulfonyl]-5-propyl-1-[(2,4,6-trimethylphenyl)methyl]indole-2-carboxamide], the EC30 result is “+++ (“+++” means <3 uM)”.
